From patent US12215098B2 (priority 2018, dated 2025)
“Also recorded” adds a separate entry of the source.

Tests used:
[1] = tested on: NASH model (high-fat diet feeding and CCl4 induction); experiment: In vivo efficacy assay, high-fat diet and CCl4 induced NASH model; parameters: species or system mice
Procedure: The model building in this assay included two steps: high-fat diet feeding and CCl4 induction. Firstly, the mice were fed with high-fat diet to induce non-alcoholic fatty liver. The mice with a body weight of >35 g were selected and continued to be fed with high-fat diet while being administered with 25% CCl4 ([…]) by intraperitoneal injection twice a week for four weeks.
The day when the administration of CCl4 was started was set as day 0, and the time when the administration of CCl4 was started was set as hour 0. On the day when the administration of CCl4 was started, the administration was started by intragastric gavage. […] The time point of the injection of CCl4 should be 4 hours or longer apart from the time point of the first administration of the day.
The healthy control group consisted of 6 normal mice, which were fed with ordinary diet during the assay, without CCl4 injection.
48 obese mice were used in the model group and the administration group. Each group consisted of 8 mice. After grouping, the mice were injected intraperitoneally with CCl4 and administered with different doses of drugs or vehicle, respectively.
The analysis software Graphpad Prism6 was used for comparation between two groups.
For the analysis of hepatic pathology in animal models of non-alcoholic steatohepatitis, the therapeutic effect of the compound on NAFLD was comprehensively evaluated in three aspects of hepatocyte steatosis, hepatocyte ballooming degeneration, and inflammation accumulation in hepatic lobule with the reference of clinicopathological diagnosis and evaluation criteria for NAFLD, and using NAFLD activity score (NAS).
All slices stained with Sirius red were wholly scanned by a Digital pathoscope 4S slide scanner. 2 fields of view were randomly selected under a 5× field of view, and 2 fields of view covered 85% of the liver tissue area. Image pro-plus 6.0 software was then used for quantitative analysis, and fibrosis deposition area in the slice was calculated.

[2] = target: Glutathione-S-transferase-labeled FXR human protein (Homo sapiens (Human), UniProt Q96RI1); experiment: FXR biochemical assay (alphascreen); conditions: FXR with biotin-labeled steroid receptor coactivator, read-out: EC50 (nM) Mean ± SEM, activation effect on FXR
Sequence of Glutathione-S-transferase-labeled FXR human protein (Q96RI1 whole entry): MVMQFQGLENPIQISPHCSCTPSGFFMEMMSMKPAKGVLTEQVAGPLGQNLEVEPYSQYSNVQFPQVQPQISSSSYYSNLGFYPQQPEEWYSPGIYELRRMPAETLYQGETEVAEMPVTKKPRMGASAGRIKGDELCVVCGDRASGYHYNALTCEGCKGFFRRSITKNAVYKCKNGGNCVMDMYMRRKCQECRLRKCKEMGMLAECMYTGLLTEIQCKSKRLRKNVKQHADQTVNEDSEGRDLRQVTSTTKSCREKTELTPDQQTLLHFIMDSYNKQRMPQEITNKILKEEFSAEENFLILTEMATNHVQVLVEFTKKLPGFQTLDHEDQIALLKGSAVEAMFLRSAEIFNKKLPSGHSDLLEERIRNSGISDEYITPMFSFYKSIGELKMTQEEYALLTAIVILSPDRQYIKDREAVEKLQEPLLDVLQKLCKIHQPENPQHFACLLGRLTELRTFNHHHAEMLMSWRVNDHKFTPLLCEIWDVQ
Procedure: 1. […] The reference compound was prepared as a 400 μM DMSO solution, and then diluted 1.5-fold to 10 concentration points. […] 2. […] 3. […] 4. […] 5. […] 6.

[3] = Hygroscopicity study by dynamic vapor sorption (DVS); type: physicochemical; conditions: 25° C. and 80% RH
Procedure: Dynamic Vapor Sorption (DVS) Method Used in the Present Disclosure
Instrument model: SMS DVS Advantage dynamic vapor sorption apparatus
Test condition: The sample (10 to 15 mg) was placed in a DVS sample pan for testing.
The detailed DVS parameters were as follows:
Equilibration: dm/dt=0.01%/min (The shortest time: 10 min, and the longest time: 180 min)
Drying: Dried for 120 min at 0% RH
RH (%) test gradient: 10%
Range of RH (%) test gradient: 0%-90%-0%
The classification of hygroscopicity evaluation was as follows:
SMS DVS Advantage dynamic vapor sorption apparatus

[4] = Solid stability test (high temperature, high humidity, strong light; XRPD); type: physicochemical
Excerpt: For the samples placed under high temperature and high humidity conditions, the vial opening was sealed with aluminum foil paper and small holes were punched in the aluminum foil paper to ensure that the sample can fully contact the ambient air. For the samples placed under strong light condition, the vial opening was sealed with aluminum foil paper. The samples placed under various conditions were sampled and tested for XRPD on the 5th day and 10th day, and the test results were compared with the initial test results on day 0.

[5] = 7.5 mg/kg, intragastric gavage once a day, 28 days, Mean±SEM
[6] = 15 mg/kg, intragastric gavage once a day, 28 days, Mean±SEM

Row | SMILES | Hepatic fibrosis (fibrosis deposition area, Sirius red) [1, 5] | Hepatocyte ballooming degeneration score [1, 5] | Hepatic steatosis score [1, 6] | Hepatocyte ballooming degeneration score [1, 6] | Hepatocyte ballooming degeneration score ([1]; 45 mg/kg, intragastric gavage once a day, 28 days, Mean±SEM, one mouse 0.17 determined as abnormal value) | Hepatic function and hepatic damage (in words) ([1]; conclusion of the assay) | EC50 [2] [nM] | NAS score [1, 6] | NAS score ([1]; 15 mg/kg, intragastric gavage once a day, 28 days, Mean±SEM, listed as PX104) | Classification of hygroscopicity [3] | ΔW, weight increase by moisture absorption [3] [%] | Crystal form (XRPD) ([4]; Day 0, initial) | Crystal form (XRPD) ([4]; High humidity (room temperature/relative humidity at 92.5%, open), Day 5) | Crystal form (XRPD) ([4]; High humidity (room temperature/relative humidity at 92.5%, open), Day 10) | Crystal form (XRPD) ([4]; High temperature (60° C., open), Day 5) | Crystal form (XRPD) ([4]; High temperature (60° C., open), Day 10) | Crystal form (XRPD) ([4]; Strong light (5000 lx, sealed), Day 5) | Crystal form (XRPD) ([4]; Strong light (5000 lx, sealed), Day 10) | Solid stability (in words) ([4]; high temperature, high humidity and strong light)
1 | O=C(O)c1cnc(N2C(=O)CCc3cc(OCc4c(-c5c(Cl)cccc5Cl)noc4C4CC4)ccc32)c(Cl)c1 [compound of formula (I)] | 2.580 | 0.0 | 0.854 | 0.0 | 0.021^@ ± | significantly improve hepatic function and reduce hepatic damage | – | – | – | – | – | – | – | – | – | – | – | – | –
2 | O=C(O)c1ccnc(N2CC(O)(c3ccc(OCc4c(-c5c(Cl)cccc5Cl)noc4C4CC4)cc3Cl)C2)c1 [PX-104, reference compound] | – | – | – | 0.0 | – | – | 65.2 | 1.479 | significantly reduce the NAS score | – | – | – | – | – | – | – | – | – | –
3 | O=C(O)c1cnc(N2C(=O)CCc3cc(OCc4c(-c5c(Cl)cccc5Cl)noc4C4CC4)ccc32)c(Cl)c1 | – | – | – | – | – | – | – | – | – | slightly hygroscopic | 0.5834 | Crystal form A | Crystal form A | Crystal form A | Crystal form A | Crystal form A | Crystal form A | Crystal form A | good stability; also recorded: stable
